Data as given in PMC9774438, “Effects of Synthetic Short Cationic Antimicrobial Peptides on the Catalytic Activity of Myeloperoxidase, Reducing Its Oxidative Capacity” (Antioxidants, 2022).
Entries after “also recorded” stand apart in the source; their conditions may differ.

Key:
myeloperoxidase (MPO) [1] = target: T1, myeloperoxidase (MPO) (Homo sapiens, UniProt P05164); assay: Electrospray mass spectrometry of dityrosine cross-linked peptide dimer; assay type: biochemical; settings: 40 μM peptide, 0.4 μM MPO heme, 50 μM H2O2, 10 mM Na-phosphate; ESI-MS positive mode
T1 construct: Native myeloperoxidase (MPO) was obtained from human leukocyte extract by successive chromatography on heparin-Sepharose and phenyl-agarose; from tissue; host or cells: human leukocyte extract
Procedure: Mass spectra were acquired using an Orbitrap Q Exactive HF-X mass spectrometer equipped with HESI source in the positive ion mode (Thermo Fisher Scientific, Waltham, MA, USA). Direct infusion syringe pump sampling was carried out with a […] Hamilton syringe at a flow rate of […]. The spray voltage was set at +3.5 kV, the sheath and auxiliary gas flow rate at 5 and 1, respectively; the S-lens RF level at 65; the capillary temperature at 250 °C. The resolution was set at 240,000, the AGC target at 1E6, and the maximum injection time at 50 ms. A summary spectrum was collected over 4 min and used for calculating S/N and measuring peak intensities. Before analysis, desalting of samples was carried out using C-18 ZIP-TIP (Millipore, Billerica, MA, USA), according to the manufacturer’s instructions. The eluate was mixed with 0.1% formic acid in DI water (18 MOhm) to a volume of 100 μL. The solutions prepared were used for direct infusion.
Additional proof for dityrosine formation upon incubation of Hm-AMP2 with H2O2-activated MPO was obtained by electrospray mass spectrometry which allowed the detection of a peptide product of the molecular weight of the dityrosine cross-linked peptide dimer. Dimerization of peptides via initial formation of a tyrosyl radical results in a 2 Da decrease in the double mass of the peptide to [2M − 2H]. […]

[2] = 10 mM Na-phosphate pH 7.4; limits peptide/heme ratio to 45:1
myeloperoxidase (MPO) [3] = target: T1, myeloperoxidase (MPO); assay: MPO heme absorbance spectra (Compound II formation and decay, MPO turnover); assay type: biochemical; settings: 100 μM H2O2, 10 mM Na-phosphate pH 7.4
Procedure: Native myeloperoxidase (MPO) was obtained from human leukocyte extract by successive chromatography on heparin-Sepharose and phenyl-agarose followed by gel-filtration on a Sephacryl S-200 HR, as previously described. The Reinheit Zahl value (A430 nm/A280 nm) for the purified protein was 0.85. The MPO concentration was determined as the heme concentration measured spectrophotometrically at 430 nm with a molar extinction coefficient of 91,000 M^−1 cm^−1 [35].
Spectra of MPO were recorded on a Cary 50 Bio UV-Vis spectrophotometer (Varian, Mulgrave, Australia). Experiments were performed with Eppendorf UVette plastic UV/Vis cuvettes (Hamburg, Germany). An MPO concentration was 2 μM heme. MPO was mixed with CAMP in 10 mM Na-phosphate buffer (pH 7.4) supplemented with 0.2 mM DTPA. H2O2 was added as a microvolume of concentrated solution (100 μM final).
To elucidate the influence of CAMPs on MPO catalytic activity, we analyzed absorbance spectral changes for MPO activated by H2O2 in the presence of peptides. The spectra were obtained with 2 μM MPO heme and 100 μM H2O2 in 10 mM Na-phosphate buffer, pH 7.4. All reactions in these and further experiments were performed in buffers supplemented with 0.2 mM diethylenetriaminepentaacetic acid (DTPA) to sequester free transition metal ions to prevent tyrosine and cysteine autooxidation.
Figure 2 Time courses of spectral absorbance changes at 430 nm (indicative of MPO ground state) and 455 nm (indicative of Compound II) in the absence and presence of cationic antimicrobial peptides (CAMPs) in the system MPO/H2O2. The name of CAMP is given in parentheses after the panel designation (A–D). H2O2 (100 µM) was added to MPO (2 µM heme) or MPO preincubated with peptides at different peptide/heme molar ratios for 5 min in 10 mM Na-phosphate buffer, pH 7.4. Spectra were taken before and 0.25 min, 5 min, 10 min, and so on after adding H2O2. The initial absorbance values (before H2O2 addition) are shown as a red square marker. […]

T1 sequence (P05164 279-745 limits assumed): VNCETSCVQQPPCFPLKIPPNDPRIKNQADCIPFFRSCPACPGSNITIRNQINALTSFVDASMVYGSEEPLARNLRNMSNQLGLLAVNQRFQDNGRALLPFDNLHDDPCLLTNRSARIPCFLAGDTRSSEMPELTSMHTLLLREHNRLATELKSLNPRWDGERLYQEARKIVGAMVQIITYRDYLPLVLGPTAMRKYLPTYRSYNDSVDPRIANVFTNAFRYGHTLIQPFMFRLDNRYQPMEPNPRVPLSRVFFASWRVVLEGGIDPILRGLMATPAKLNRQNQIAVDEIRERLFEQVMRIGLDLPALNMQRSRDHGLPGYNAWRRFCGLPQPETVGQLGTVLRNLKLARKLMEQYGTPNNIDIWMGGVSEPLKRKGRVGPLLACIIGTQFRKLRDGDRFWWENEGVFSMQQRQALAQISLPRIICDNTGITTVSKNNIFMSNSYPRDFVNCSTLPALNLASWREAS
T1 sequence (P05164 165-273 limits assumed): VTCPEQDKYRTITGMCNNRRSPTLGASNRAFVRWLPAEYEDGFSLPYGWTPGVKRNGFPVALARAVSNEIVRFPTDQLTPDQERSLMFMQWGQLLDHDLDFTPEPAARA

EKRWRRLIFNYF [Hm-AMP2, synthetic cationic antimicrobial peptide …]
increase of [2M − 2H + 3H]3+ dimer ion signal (m/z 1152.4) vs control (myeloperoxidase (MPO) [1]): 20 fold | solubility in phosphate buffer [2]: poor solubility | effect on H2O2-induced formation and decay of MPO Compound II / MPO turnover (summary) (myeloperoxidase (MPO) [3]; 2 μM MPO heme, all concentrations): accelerated MPO turnover; also recorded: Acceleration of CII reduction to native MPO | effect on Compound II decay to native MPO (myeloperoxidase (MPO) [3]; peptide/heme molar ratio up to 45:1, 2 μM MPO heme): accelerated Compound II decay to native MPO, with the effect being greater at a higher peptide/heme molar ratio
